Test results published in US20150148311A1, “NON-SYSTEMIC TGR5 AGONISTS” (Ardelyx, Inc., priority 2011, published 2015).
Like-named read-outs stand apart in the source and are kept apart here.

Assays:
[1] = Compound plasma concentration, LC-MS/MS, 8 h post dose; format: in vivo; details: 30 mg/kg; for Number of Mice with Plasma Concentration < LLOQ: mice below LLOQ / mice in group; for concentration at 8 h: male, C57BL/6, mouse, mice, plasma, read-out: Mean Example Plasma Concentration
Protocol: (§1) Eight hours later, each mouse was heavily anesthetized with isoflurane, the peritoneal cavity was opened and the gallbladder, with its entire contents, was carefully excised and weighed. Blood was collected from the left ventricle of the heart and processed to plasma in EDTA-coated tubes containing aprotinin and DPPIV inhibitor for measurement of total GLP-1 (K150FCC; Meso Scales Discovery, Gaithersburg Md.).
Plasma samples were treated with acetonitrile containing an internal standard, precipitated proteins removed by centrifugation. Supernatants were analyzed by LC-MS/MS and compound concentrations were determined by interpolated from a standard curve prepared in plasma.

human TGR5 = biological target: T1, human TGR5 (Homo sapiens, UniProt Q8TDU6); assay: Cell-based TGR5 assay, HEK293 cells stably expressing human TGR5, cAMP by HTRF; details: 0.05 nM to 10 μM
T1 construct: expressed in transfected cells
T1 sequence (Q8TDU6 1-330): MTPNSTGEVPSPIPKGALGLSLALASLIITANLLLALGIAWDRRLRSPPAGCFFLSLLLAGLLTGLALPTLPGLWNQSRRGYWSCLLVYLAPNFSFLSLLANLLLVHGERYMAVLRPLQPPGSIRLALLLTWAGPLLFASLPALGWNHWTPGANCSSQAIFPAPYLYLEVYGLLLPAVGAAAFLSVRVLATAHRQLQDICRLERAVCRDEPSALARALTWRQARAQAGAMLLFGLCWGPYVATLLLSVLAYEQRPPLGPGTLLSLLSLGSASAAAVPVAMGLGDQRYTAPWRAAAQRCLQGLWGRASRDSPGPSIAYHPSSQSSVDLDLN
In short: (§2)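 cAMP HTRF read-out, converted to concentration via standard curve, after a 30 min, 37 °C compound exposure in HBSS with 10 mM HEPES pH 7.4 and 0.5 mM IBMX, compounds serially diluted 3-fold from 10 mM DMSO stock then 100-fold. Cells: stable human TGR5 HEK293, or NCI-H716 expressing TGR5 endogenously.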

human IBAT = biological target: T2, human IBAT (Homo sapiens, UniProt Q12908); assay: IBAT counter screen, [3H]taurocholic acid uptake in IBAT-transfected HEK293 cells; format: cell-based
T2 construct: expressed in transfected cells; host or cells: HEK293
T2 sequence (Q12908 1-348): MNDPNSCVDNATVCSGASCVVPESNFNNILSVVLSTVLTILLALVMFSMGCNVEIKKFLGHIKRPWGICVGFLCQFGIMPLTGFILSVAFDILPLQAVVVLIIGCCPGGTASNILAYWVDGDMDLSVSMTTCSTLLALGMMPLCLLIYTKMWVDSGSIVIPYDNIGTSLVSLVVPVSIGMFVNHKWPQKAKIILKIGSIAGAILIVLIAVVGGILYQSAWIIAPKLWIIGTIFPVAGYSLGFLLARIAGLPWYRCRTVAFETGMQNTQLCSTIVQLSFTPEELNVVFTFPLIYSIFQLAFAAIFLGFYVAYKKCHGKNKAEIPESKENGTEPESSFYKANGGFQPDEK
Protocol: Following a 40-min incubation, the solution was removed, and the cells were washed twice with uptake buffer. Cells were lysed by addition of 20 μL 0.1% Tween 80 followed by 100 μL scintillation fluid and counted using a TopCount (Perkin Elmer).

[2] = Compound concentration in gall bladder, LC-MS/MS, 8 h post dose; format: in vivo; details: 30 mg/kg; for Number of Mice with Gallbladder Concentration < LLOQ: mice below LLOQ / mice in group; for concentration at 8 h: male, C57BL/6, mouse, with contents, mice, gallbladder homogenate, read-out: Mean Example Gallbladder Concentration
Protocol: as §1
Compound concentrations in the gall bladder were determined as follows: each mouse was heavily anesthetized with isoflurane, the peritoneal cavity was opened and the gallbladder, with its entire contents, was carefully excised. After harvest, gall bladders were homogenized in 100 μL water using a micro-homogenizer. Samples of homogenate were diluted 1:5 in water and precipitated with three volumes of neat acetonitrile. After centrifugation, supernatants were analyzed by LC-MS/MS. The level of test compound present in gall bladder samples was interpolated from a standard curve for each individual compound prepared in a matrix of gallbladder homogenate from vehicle treated animals.

C57BL/6 male mice = assay: In vivo gallbladder measurement (weight) 8 h post dose; details: 30 mg/kg; for Gallbladder weight/body weight fold change over vehicle, Significance: 8 h, vs. vehicle, one-way ANOVA, Dunnett's test; for Gallbladder weight/body weight fold change over vehicle, Mean: food removed, eight hours after dosing
Text: as §1

total GLP-1 = assay: In vivo GLP-1 secretion, plasma total GLP-1 8 h post dose; details: Mus musculus, C57BL/6 male mice, food removed, plasma total GLP-1 eight hours after dosing, read-out: GLP-1 fold change over vehicle, Mean
Text: as §1

[3] = biological target: T3, endogenously expressed TGR5 in NCI H716 (Homo sapiens, UniProt Q8TDU6); assay: Cell-based TGR5 assay, NCI-H716 cells endogenously expressing human TGR5, cAMP by HTRF; details: 30 min at 37 C, 22 nM to 50 μM, read-out: pEC50 endogenously expressed TGR5 in NCI H716 (converted)
T3 construct: human caecum carcinoma cell line NCI-H716 which endogenously expresses human TGR5; endogenous in cells; host or cells: NCI-H716
T3 sequence (Q8TDU6 1-330): T1 sequence (Q8TDU6 1-330)
In short: as §2

[4] = pEC50 Human TGR5, HEK293 cells stably expressing human TGR5, 30 min at 37 C
[5] = read-out: pEC50 human IBAT (converted)
[6] = HEK293 cells stably expressing human TGR5, 30 min at 37 C, read-out: pEC50 Human TGR5 (converted)

Row | SMILES | Number of Mice with Plasma Concentration < LLOQ [1] | concentration at 8 h [1] [ng/mL] | EC50 (human TGR5; [4]) [nM] | EC50 (human IBAT; [5]) [nM] | Number of Mice with Gallbladder Concentration < LLOQ [2] | concentration at 8 h [2] [nM] | Gallbladder weight/body weight fold change over vehicle, Significance (C57BL/6 male mice) | Gallbladder weight/body weight fold change over vehicle, Mean (C57BL/6 male mice) [fold change over vehicle] | EC50 (human TGR5; [6]) [nM] | response vs control in vivo at 30 mg/kg (total GLP-1) [%] | EC50 [3] [nM] | EC50 (human IBAT) [nM]
1 | O=C(CCCCc1cc(Cl)c(CN2CSC[C@H]2C(=O)N2CCN(C3CC3)c3ccccc32)cc1Cl)N[C@@H](C(=O)O)[C@@H](O)[C@H](O)[C@H](O)CO [Example 240] | 0/8 | 28.1 | < 100 | > 25100 | 0/8 | 3920 |  |  |  |  |  | 
2 | O=C(N1CCN(C2CC2)c2ccccc21)C1(NCc2cc(Cl)c(O)cc2Cl)CC1 [Example 165, (4-Cyclopropyl-3,4-dihydroquinoxalin-1(2H)-yl)(1-((2,5-dichloro-4-hydroxybenzyl)amino)cyclopropyl)methanone] | 2/8 | 2.2 |  |  | 0/8 | 600 | n.s. | 1.5 | < 100 | 120 |  | 
3 | CN(C(=O)C1(OCc2cc(Cl)c(CCCNC(=O)NC[C@H](O)[C@@H](O)[C@H](O)[C@H](O)CO)cc2Cl)CC1)c1ccccc1OC1CC1 [Example 96, N-(2-cyclopropoxyphenyl)-1-(2,5-dichloro-4-(3-(3-((2S,3R,4R,5R)-2,3,4,5,6-pentahydroxyhexyl)ureido)propyl)benzyloxy)-N-methylcyclopropanecarboxamide] | 8/8 | < 2 |  |  | 0/8 | 1340 | n.s. | 0.8 | < 100 | 190 | < 100 | 
4 | O=C(OC1(C(=O)N2CCN(C3CC3)c3ccccc32)CC1)c1cc(Cl)ccc1Cl [Example 166, 1-(4-cyclopropyl-1,2,3,4-tetrahydroquinoxaline-1-carbonyl)cyclopropyl 2,5-dichlorobenzoate] | 2/8 | 1.4 |  |  | 8/8 | < 12 | n.s. | 1.2 | < 100 | 150 |  | 
5 | CN(C[C@H](O)[C@@H](O)[C@H](O)[C@H](O)CO)C(=O)CCCCc1cc(Cl)c(CN2CSC[C@H]2C(=O)N2CCN(C3CC3)c3ccccc32)cc1Cl [Example 238] | 3/8 | 1.2 |  | > 25100 | 0/8 | 4400 |  |  |  |  |  | 
6 | O=C(N1CCN(C2CC2)c2ccccc21)C1(NCc2cc(Cl)cc(O)c2Cl)CC1 [Example 167, (4-cyclopropyl-3,4-dihydroquinoxalin-1(2H)-yl)(1-((2,5-dichloro-3-hydroxybenzyl)amino)cyclopropyl)methanone] | 5/8 | 2.3 |  |  | 0/8 | 3300 | n.s. | 1.3 | 126 to 1000 | 130 |  | 
7 | O=C(O)CNC(=O)[C@H](CSSC[C@H](NC(=O)CC[C@H](NC(=O)CCCCc1cc(Cl)c(CN2CSC[C@H]2C(=O)N2CCN(C3CC3)c3ccccc32)cc1Cl)C(=O)O)C(=O)NCC(=O)O)NC(=O)CC[C@H](NC(=O)CCCCc1cc(Cl)c(CN2CSC[C@H]2C(=O)N2CCN(C3CC3)c3ccccc32)cc1Cl)C(=O)O [Example 241] | 8/8 | < 10 | < 100 |  | 8/8 | < 60 |  |  |  |  |  | > 25100
8 | O=C(NCCCCCc1cc(Cl)c(CN2CSC[C@H]2C(=O)N2CCN(C3CC3)c3ccccc32)cc1Cl)NC(CO)(CO)CO [Example 198] | 0/8 | 3.6 |  | > 25100 | 0/8 | 1300 | * (* p < 0.05 vs. vehicle; One-way ANOVA followed by Dunnett's test) | 1.9 |  |  |  | 
9 | Cn1c(C(=O)NC[C@H](O)[C@@H](O)[C@H](O)[C@H](O)CO)cnc1SCc1cc(Cl)c(CN2CSC[C@H]2C(=O)N2CCN(C3CC3)c3ccccc32)cc1Cl [Example 175, 2-((2,5-dichloro-4-(((R)-4-(4-cyclopropyl-1,2,3,4-tetrahydroquinoxaline-1-carbonyl)thiazolidin-3-yl)methyl)benzyl)thio)-1-methyl-N-((2S,3R,4R,5R)-2,3,4,5,6-pentahydroxyhexyl)-1H-imidazole-5-carboxamide] | 7/8 |  |  | > 25100 | 0/8 |  |  |  |  |  |  | 
10 | CN(C(=O)C1(OCc2cc(Cl)c(CCCCCNC(=O)NC[C@H](O)[C@@H](O)[C@H](O)[C@H](O)CO)cc2Cl)CC1)c1ccccc1OC1CC1 [Example 258] | 7/8 | 9.4 |  |  | 0/8 | 700 | n.s. | 1.1 | < 100 | 110 |  | 
11 | CN(C(=O)C1(OCc2cc(Cl)c(CCCCC(=O)NC[C@H](O)[C@@H](O)[C@H](O)[C@H](O)CO)cc2Cl)CC1)c1ccccc1OC1CC1 [Example 259] | 6/8 | 1.1 |  |  | 0/8 | 100 | n.s. | 0.9 | < 100 | 140 |  | 
12 | O=C(O)CNC(=O)CNC(=O)CNC(=O)CCCCc1cc(Cl)c(CN2CSC[C@H]2C(=O)N2CCN(C3CC3)c3ccccc32)cc1Cl [Example 228] | 8/8 | < 0.5 | < 100 | > 25100 | 0/8 | 600 |  |  |  |  |  | 
13 | O=C([C@@H]1CSCN1Cc1cc(Cl)cc(O)c1Cl)N1CCN(C2CC2)c2ccccc21 [Example 169, (R)-(4-cyclopropyl-3,4-dihydroquinoxalin-1(2H)-yl)(3-(2,5-dichloro-3-hydroxybenzyl)thiazolidin-4-yl)methanone] | 4/8 | 2.1 |  |  | 0/8 | 1200 |  | 1.9 | < 100 | 150 |  | 
